Results reported in patent US8450332B2, “LIMK2 inhibitors, compositions comprising them, and methods of their use” (Lexicon Pharmaceuticals, Inc., priority 2008, dated 2013).

biological target: T1, LIMK2 (Homo sapiens, UniProt P53671); test: In vitro LIMK2 inhibition assay (33P incorporation into myelin basic protein flash plates); assay type: biochemical
T1 construct: His tag (histidine-tagged; pFastBacHT vector); made in house; host or cells: Sf9 insect cells (BAC-to-BAC baculovirus system)
Experimental: Using the procedures described herein and methods known in the art, the additional compounds listed below in Table 1 were prepared. The LIMK2 IC50 data that is provided below for some of the compounds was determined using the assay described in Example 32.
An in vitro assay used to identify LIMK2 inhibitors was developed. The analytical readout was the incorporation of ^33P from ATP substrate into immobilized myelin basic protein coated flash plates (Perkin Elmer Biosciences), which were counted on a scintillation counter equipped with a plate reader (TopCount, Packard Bioscience, Meriden, Conn.). Using 384 well flat MBP flashplates, total assay volume was 50 μl. The HTS program utilized a Biomek FX for dilution.
For each assay, the ingredients and conditions were as follows: 200 ng of enzyme was incubated in assay buffer (1× assay buffer contains 30 mM HEPES (pH 8.0), 5 mM DTT, and 10 mM MgCl2), 10 μM ATP, 0.2 μCi [gamma-^33P]-ATP and 10 μM of potential inhibitory compound. The reaction was incubated at room temperature for 60 minutes, washed 3 times with 75 μl of stop/wash buffer (1× stop/was buffer contains 50 mM EDTA and 20 mM Tris (pH 7.4)), and then the plates were read on the scintillation counter. Different concentrations of staurosporine (400 nM, 200 nM, 100 nM and 50 nM; purchased from BIOMOL (Plymouth Meeting, Pa.)) were used as controls on each plate.

T1 sequence (P53671 whole entry): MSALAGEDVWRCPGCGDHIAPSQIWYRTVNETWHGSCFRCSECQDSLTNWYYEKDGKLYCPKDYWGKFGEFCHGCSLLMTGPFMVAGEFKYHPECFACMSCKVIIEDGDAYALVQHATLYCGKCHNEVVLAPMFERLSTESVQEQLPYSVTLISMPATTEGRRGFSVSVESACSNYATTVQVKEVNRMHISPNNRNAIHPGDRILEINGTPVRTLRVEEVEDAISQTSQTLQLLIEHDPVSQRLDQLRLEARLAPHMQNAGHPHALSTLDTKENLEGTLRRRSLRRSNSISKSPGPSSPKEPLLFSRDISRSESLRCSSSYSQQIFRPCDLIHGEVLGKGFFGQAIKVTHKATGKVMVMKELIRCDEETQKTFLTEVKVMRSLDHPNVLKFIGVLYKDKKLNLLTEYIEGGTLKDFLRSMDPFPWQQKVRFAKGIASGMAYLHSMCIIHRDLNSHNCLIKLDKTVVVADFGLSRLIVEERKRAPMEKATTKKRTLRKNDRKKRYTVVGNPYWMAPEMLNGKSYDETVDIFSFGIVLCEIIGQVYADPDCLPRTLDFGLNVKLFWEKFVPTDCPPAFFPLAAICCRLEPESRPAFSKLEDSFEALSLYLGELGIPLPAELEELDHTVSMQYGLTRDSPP

Compound	IC50 [nM]
Cc1c[nH]c2ncnc(N3CCC(C)(C(=O)Nc4ccccc4)CC3)c12 [4-methyl-1-(5-methyl-7H-pyrrolo[2,3-d]pyrimidin-4-yl)-N-phenylpiperidine-4-carboxamide]	< 250
Cc1c[nH]c2ncnc(N3CCC(CNC(=O)[C@@H](N)CCCN)(C(=O)Nc4cccc(OC(=O)N(C)C)c4)CC3)c12 [(S)-3-(4-((2,5-diaminopentanamido)methyl)-1-(5-methyl-7H-pyrrolo[2,3-d]pyrimidin-4-yl)piperidine-4-carboxamido)phenyl dimethylcarbamate]	< 250
Cc1c[nH]c2ncnc(N3CCC(CNC(=O)[C@@H](N)Cc4c[nH]cn4)(C(=O)Nc4cccc(OC(=O)N(C)C)c4)CC3)c12 [(S)-3-(4-((2-amino-3-(1H-imidazol-4-yl)propanamido)methyl)-1-(5-methyl-7H-pyrrolo[2,3-d]pyrimidin-4-yl)piperidine-4-carboxamido)phenyl dimethylcarbamate]	< 250
Cc1c[nH]c2ncnc(N3CCC(CNC(=O)[C@@H](N)CO)(C(=O)Nc4cccc(OC(=O)N(C)C)c4)CC3)c12 [(S)-3-(4-((2-amino-3-hydroxypropanamido)methyl)-1-(5-methyl-7H-pyrrolo[2,3-d]pyrimidin-4-yl)piperidine-4-carboxamido)phenyl dimethylcarbamate]	< 250
Cc1c[nH]c2ncnc(N3CCC(C)(C(=O)Nc4cccc(CC(=O)N(C)C)c4)CC3)c12 [N-(3-(2-(dimethylamino)-2-oxoethyl)phenyl)-4-methyl-1-(5-methyl-7H-pyrrolo[2,3-d]pyrimidin-4-yl)piperidine-4-carboxamide]	< 250
Cc1c[nH]c2ncnc(N3CCC(C)(C(=O)Nc4cccc(Oc5ccc(F)cc5)c4)CC3)c12 [N-(3-(4-fluorophenoxy)phenyl)-4-methyl-1-(5-methyl-7H-pyrrolo[2,3-d]pyrimidin-4-yl)piperidine-4-carboxamide]	< 250
Cc1c[nH]c2ncnc(N3CCC(C)(C(=O)Nc4cccc(S(=O)(=O)NC(C)C)c4)CC3)c12 [N-(3-(N-isopropylsulfamoyl)phenyl)-4-methyl-1-(5-methyl-7H-pyrrolo[2,3-d]pyrimidin-4-yl)piperidine-4-carboxamide]	< 250
Cc1c[nH]c2ncnc(N3CCC(C)(C(=O)Nc4ccc(F)c(Br)c4)CC3)c12 [N-(3-bromo-4-fluorophenyl)-4-methyl-1-(5-methyl-7H-pyrrolo[2,3-d]pyrimidin-4-yl)piperidine-4-carboxamide]	< 250
CC1(C(=O)Nc2cccc(Br)c2)CCN(c2ncnc3[nH]cc(Cl)c23)CC1 [N-(3-bromophenyl)-1-(5-chloro-7H-pyrrolo[2,3-d]pyrimidin-4-yl)-4-methylpiperidine-4-carboxamide]	< 250
Cc1c[nH]c2ncnc(N3CCC(C)(C(=O)Nc4cccc(Br)c4)CC3)c12 [N-(3-bromophenyl)-4-methyl-1-(5-methyl-7H-pyrrolo[2,3-d]pyrimidin-4-yl)piperidine-4-carboxamide]	< 250
Cc1c[nH]c2ncnc(N3CCC(C)(C(=O)Nc4cccc(NC(=O)C(C)C)c4)CC3)c12 [N-(3-isobutyramidophenyl)-4-methyl-1-(5-methyl-7H-pyrrolo[2,3-d]pyrimidin-4-yl)piperidine-4-carboxamide]	< 250
COc1ccc(NC(=O)C2(C)CCN(c3ncnc4[nH]cc(C)c34)CC2)cc1 [N-(4-methoxyphenyl)-4-methyl-1-(5-methyl-7H-pyrrolo[2,3-d]pyrimidin-4-yl)piperidine-4-carboxamide]	< 250
COC(=O)c1nnn(CC2(C(=O)Nc3cccc(OC(=O)N(C)C)c3)CCN(c3ncnc4[nH]cc(C)c34)CC2)c1C(=O)OC [dimethyl 1-((4-(3-(dimethylcarbamoyloxy)phenylcarbamoyl)-1-(5-methyl-7H-pyrrolo[2,3-d]pyrimidin-4-yl)piperidin-4-yl)methyl)-1H-1,2,3-triazole-4,5-dicarboxylate]	< 250
